Like-named read-outs stand apart in the source and are kept apart here.
Legend:
CYP2E1 = details: cited from earlier work
[1] = biological target: T1, human cytochrome P450 2E1 (Homo sapiens, UniProt P05181); assay: Steady-state p-nitrophenol oxidation, CYP2E1 inhibition in SUPERSOMES; format: biochemical
T1 construct: purchased BD Biosciences
Experimental: Initial velocities of the oxidation of p-nitrophenol (p-NP) to p-nitrocatechol by human cytochrome P450 2E1 were determined by measuring the absorption at 535 nm or 546 nm to determine product formation as described before.
Alternatively, 100 mM HEPES pH 7.6 was additionally used for the enzyme kinetic measurements. A final concentration of either 50 nM enzyme in form of SUPERSOMES™ from BD Biosciences or microsomes in case of cell culture experiments was added. Reaction was initiated by adding 500 μM (enzyme kinetic measurements) or 0.1 mM (cell culture experiments) NADPH after preincubation at 37° C and stopped by adding 20% trichloroacetic acid (TCA) after 30 minutes to ensure linearity of product formation. The protein concentration for the microsomal fraction was determined by Bradford assay to calculate the results expressed as units of specific activity defined as the amount of enzyme that consumes 1 μmol/L of NADPH per hour per microgram of protein. Inhibitor stock solutions were prepared in 0.1% DMSO and diluted to a final DMSO concentration of 0.003% in the reaction mixture at most to avoid enzyme inhibition by this solvent. Inhibitory constants (Ki) were calculated by non-linear fitting of initial velocities. Maximum inhibition could not be achieved since final inhibitor concentrations were limited by DMSO.
Supplementary file pone.0235990.s002.tif: S2 Fig CYP2E1 inhibition by data base inhibitors. To ascertain whether an imidazole containing compound is already commercially available and better suited for development as a drug can-didate, we performed a large virtual library screening of the ZINK database. We found 14,738 hits. The 5,261 commercially available compounds could be classified as 4,710 synthetic and 551 natural molecules. After docking and final scoring process, the seven best synthetic and the three best natural candidates were purchased and tested in vitro for their potential to inhibit CYP2E1 activity. Different concentrations of these compounds dissolved in DMSO were added to 110 μM p-Nitrophenol in 100 mM HEPES buffer pH 7.6 and SUPERSOMES™ with 50 nM human CYP 2E1 to calculate relative activity values. […] 20 μM corresponds to a DMSO volume of 0.02% (v/v). (TIF) Click here for additional data file.

[2] = literature survey, ref not given

T1 sequence (P05181 whole entry): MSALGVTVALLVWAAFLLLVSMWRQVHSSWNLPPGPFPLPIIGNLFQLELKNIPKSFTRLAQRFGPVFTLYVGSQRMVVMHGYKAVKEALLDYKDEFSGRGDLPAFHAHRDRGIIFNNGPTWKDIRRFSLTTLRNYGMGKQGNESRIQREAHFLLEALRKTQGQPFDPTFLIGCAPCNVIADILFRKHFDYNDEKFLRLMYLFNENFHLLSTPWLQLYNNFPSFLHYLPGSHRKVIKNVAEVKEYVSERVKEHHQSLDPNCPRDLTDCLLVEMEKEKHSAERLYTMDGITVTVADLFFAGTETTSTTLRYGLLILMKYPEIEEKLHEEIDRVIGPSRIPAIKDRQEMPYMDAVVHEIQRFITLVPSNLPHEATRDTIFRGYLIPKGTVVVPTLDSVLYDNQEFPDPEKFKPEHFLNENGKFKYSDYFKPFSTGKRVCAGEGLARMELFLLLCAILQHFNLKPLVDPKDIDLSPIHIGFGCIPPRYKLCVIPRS

| Compound | effect on CYP2E1 activity (in words) (CYP2E1; [2]) | inhibitory effect on CYP2E1 (in words) ([1]; human CYP2E1 SUPERSOMES) | further results |
| --- | --- | --- | --- |
| C[N+](C)(C)CC(=O)O [Betaine] | Betaine reduces CYP2E1 activity only to a minor extend, while attenuating ASH. People with high cholesterol should use betaine anhydrous cautiously. |  |  |
| C[S+](C)[O-] [DMSO] |  |  | IC50 ([1]; solvent inhibition of CYP2E1): 0.065 % (v/v) |
| OCCCCCCCCCCn1ccnc1 [I-decanol, 10-imidazolyl-1-decanol] |  | almost identical |  |
| OCCCCCCCn1ccnc1 [I-heptanol, 7-imidazolyl-1-heptanol] |  | dramatic decrease in inhibitory performance |  |
| OCCCCCCCCCn1ccnc1 [I-nonanol, 9-imidazolyl-1-nonanol] |  | almost identical |  |
| C[N+](C)(C)CCOP(=O)([O-])OCCCCCCCCCCCCn1ccnc1 [I-phosphocholine, 12-Imidazolyl-dodecan-1-yl-phosphocholine] |  |  | Ki ([1]; human CYP2E1 SUPERSOMES, p-nitrophenol oxidation, competitive model with offset): 22 µM |
| C[S+](CC[C@H](N)C(=O)[O-])C[C@H]1O[C@@H](n2cnc3c(N)ncnc32)[C@H](O)[C@@H]1O (stereo partly drawn) [S-adenosyl-L-methionine (SAM), S-adenosyl-L-methionine] | CYP2E1 activity (SAM is a non-competitive inhibitor), reactive oxygen species, anti-fibrogenic action, clinical trial |  |  |
| C[S+]([O-])CCCCN=C=S (stereo not drawn) [Sulforaphane] | Sulforaphane does not inhibit CYP2E1 in the knockin mouse modell. |  |  |
| Silymarin |  |  | effect on CYP2E1 activity (in words) (CYP2E1): Has no influence on CYP2E1 activity. Clinical trails with patients having alcoholic liver cirrhosis showed controversial results. |

— paper PMC7377376, “Drug targeting CYP2E1 for the treatment of early-stage alcoholic steatohepatitis” (PLoS ONE, 2020)
